The values below come from publication PMC6968685 (Journal of Enzyme Inhibition and Medicinal Chemistry, 2020).

Series [1] concerns T. brucei brucei AnTat 1.9. In words: In vitro antitrypanosomal activity, Alamar Blue assay. The settings on record: for Selectivity index HepG2/Tryp.: SI = CC50 HepG2 / IC50 Trypanosoma brucei brucei; for IC50: Trypanosoma brucei, slender bloodstream trypomastigotes, AnTat 1.9 strain, read-out: Trypanosoma brucei brucei IC50 values, Trypanos Antat 1.9. The class given is cell-based. How it is done: The effects of the tested compounds on the growth of T. brucei brucei were assessed using an Alamar Blue® assay described by Räz et al.[49] T. brucei brucei AnTat 1.9 (IMTA, Antwerpen, Belgium) was cultured in MEM with Earle’s salts, supplemented according to the protocol of Baltz et al.[50] with the following modifications: 0.5 mM mercaptoethanol (Sigma Aldrich), 1.5 mM L-cysteine (Sigma Aldrich), 0.05 mM bathocuproine sulphate (Sigma Aldrich), and 20% heat-inactivated horse serum (Gibco, France) at 37 °C and 5% CO2. Samples were incubated at an average density of 2000 parasites/well in sterile 96-wells plates (Fisher, France) with various concentrations of compounds dissolved in 0.9% NaCl. All doses were tested in duplicate. Appropriate controls treated with solvents 0.9% NaCl or DMSO or with suramin, pentamidine, eflornithine, and fexinidazole (reference drugs purchased from Sigma Aldrich and Fluorochem, UK) were added to each set of experiments. After 69 h incubation period at 37 °C, 10 µl of the viability marker Alamar Blue (Fisher) was added to each well, and the plates were incubated for 5 h. The plates were read in a PerkinElmer ENSPIRE (Germany) microplate reader using an excitation wavelength of 530 nm and an emission wavelength of 590 nm. […] IC50 values were calculated using a nonlinear regression analysis of dose-response curves performed using GraphPad Prism software (La Jolla, CA). IC50 values were calculated from three independent experiments.

Series [2] deals with L. donovani (MHOM/IN/00/DEVI) promastigotes. In words: In vitro antileishmanial activity, MTT assay on promastigotes. The settings on record: Leishmania donovani, 72 h incubation, ≥10 = no activity noted at the highest concentration tested. The class given is cell-based. On the procedure:
L. donovani (MHOM/IN/00/DEVI) used in this study was provided by the CNR Leishmania (Montpellier, France). The effects of the tested compounds on the growth of L. donovani (MHOM/IN/00/DEVI) promastigotes were assessed by MTT assay. Briefly, promastigotes in log-phase in Schneider’s medium supplemented with 20% foetal calf serum (FCS), 2 mM L-glutamine and antibiotics (100 U/ml penicillin and 100 µg/ml streptomycin), were incubated at an average density of 10^6 parasites/ml in sterile 96-well plates with various concentrations of compounds dissolved in DMSO (final concentration less than 0.5% v/v), in duplicate. Appropriate controls treated with DMSO and amphotericin B (reference drug purchased from Sigma-Aldrich) were added to each set of experiments. After 72 h incubation period at 27 °C, parasite metabolic activity was determined. Each well was microscopically examined for precipitate formation. To each well was added 20 µl of 5 mg/ml MTT [3–(4,5-dimethylthiazol-2-yl)-2,5-diphenyltetrazolium bromide)] solution followed by 4 h incubation time. The enzyme reaction was stopped by addition of 100 µl of 50% isopropanol/10% sodium dodecyl sulfate. Plates were vigorously shaken (300 rpm) for 10 min, and the absorbance was measured at 570 nm in a BIO-TEK ELx808 Absorbance Microplate Reader. […] IC50 of the parasite’s growth (half maximal inhibitory concentration or IC50 values) were then calculated from the obtained experimental results using a previously described regression programme.

Series [3] has as its system P. falciparum CQ-sensitive strain 3D7. In words: In vitro antiplasmodial activity, SYBR Green I fluorescence-based method, strain 3D7. The format is cell-based. The following applies: for IC50: Plasmodium falciparum, chloroquine-sensitive strain 3D7, 48 h incubation, read-out: P. falciparum strains IC50 values, 3D7; for Selectivity index HepG2/3D7: SI = CC50 HepG2 / IC50 P. falciparum 3D7. How it is done:
The in vitro antiplasmodial activities were tested over concentrations ranging from […] against culture-adapted P. falciparum reference strains 3D7 and W2. […] The parasites were cultivated in RPMI medium (Sigma-Aldrich, Lyon, France) supplemented with 0.5% Albumax I (Life Technologies Corporation, Paisley, UK), hypoxanthine (Sigma-Aldrich), and gentamicin (Sigma-Aldrich) with human erythrocytes and were incubated at 37 °C in a candle jar, as described previously[43] .The P. falciparum drug susceptibility test was carried out in 96-well flat-bottom sterile plates in a final volume of 250 µl. After 48 h incubation period with the drugs, quantities of DNA in treated and control cultures of parasites in human erythrocytes were quantified using the SYBR Green I (Sigma-Aldrich) fluorescence-based method[44]^,[45]. Briefly, after incubation, plates were frozen at −20 °C until use. Plates were then thawed for 2 h at room temperature, and 100 µl of each homogenised culture was transferred to a well of a 96-well flat-bottom sterile black plate (Nunc, Inc., Rochester, NY) that contained 100 µl of the SYBR Green I lysis buffer (2xSYBR Green, 20 mM Tris base pH 7.5, 5 mM EDTA, 0.008% w/v saponin, 0.08% w/v Triton X-100). […] Plates were incubated for 1 h at room temperature and then read on a fluorescence plate reader (Tecan, Grödig, Austria) using excitation and emission wavelengths of 485 and 535 nm, respectively. IC50 values were calculated by non-linear regression analysis of data from dose-response curves, using TableCurve 2D version 5.0 software (Systat Software, San Jose, CA). IC50 values are reported as means calculated from three independent experiments.

Series [4] can be described thus: Cytotoxicity evaluation, MTT. The settings on record: human. The class given is cell-based, human. On the procedure: These cells are a commonly used human hepatocarcinoma-derived cell line that has characteristics similar to those of primary hepatocytes. These cells express many hepatocyte-specific metabolic enzymes, thus enabling the cytotoxicity of tested product metabolites to be evaluated. […] Duplicate assays were performed for each sample. Each well was microscopically examined for precipitate formation before the medium was aspirated from the wells. After aspiration, 100 µl of MTT solution (0.5 mg/ml in medium without FCS) were then added to each well. […] The MTT solution was removed, and DMSO (100 µl) was added to dissolve the resulting blue formazan crystals. Plates were shaken vigorously (300 rpm) for 5 min. The absorbance was measured at 570 nm with 630 nm as reference wavelength in a BIO-TEK ELx808 Absorbance Microplate Reader. DMSO was used as blank and doxorubicin (Sigma Aldrich) as positive control. Cell viability was calculated as percentage of control (cells incubated without compound). The CC50 was determined from the dose-response curve using the TableCurve 2D version 5.0 software (Systat Software, San Jose, CA)

Like-named read-outs stand apart in the source and are kept apart here.

The term IC50 denotes the concentration that gives 50% inhibition. In general, CC50 refers to the concentration giving 50% cytotoxicity. As for `CN1CCN(CCCNCc2ccc(-c3nc(-c4ccc(CNCCCN5CCN(C)CC5)cc4)c4ccccc4n3)cc2)CC1` [Compound 3e, 2,4-Bis{4-[(3–(4-methylpiperazin-1-yl)propyl)aminomethyl]phenyl}quinazoline], the “Selectivity index HepG2/Tryp.” value in series [1] amounted to 6.64. Also, the IC50 was 2390 ± 129 nM in series [1], ≥ 10000 nM in series [2] and 1520 ± 172 nM in series [3]. Moreover, the “Selectivity index HepG2/3D7” value in series [3] is listed as 10.44. Also, the cytotoxic concentration (CC50) at 72 h in series [4] worked out at 15900 ± 1700 nM.

For the compound `COc1cccc2c1C(=O)c1c(O)c3c(c(O)c1C2=O)C[C@@](O)(C(=O)CO)C[C@@H]3O[C@H]1C[C@H](N)[C@H](O)[C@H](C)O1` [Doxorubicin, reference compound], the CC50 at 72 h in series [4] (HepG2 cells, 72 h, read-out: Cytotoxicity to HepG2 cells CC50 values) turned out to be 60 ± 20 nM.

Consider `c1ccc2c(-c3ccc(CNCCN4CCOCC4)cc3)cc(-c3ccc(CNCCN4CCOCC4)cc3)nc2c1` [Compound 1h, 2,4-Bis{4-[(2-morpholinoethyl)aminomethyl]phenyl}quinoline], for which the “Selectivity index HepG2/Tryp.” value in series [1] came to 2.83. The values for the IC50 in series [1], in series [2] and in series [3] were 1590 ± 71 nM, ≥ 10000 nM and 1340 ± 173 nM, respectively. In addition, the “Selectivity index HepG2/3D7” value in series [3] is reported as 3.36. The CC50 at 72 h in series [4] came out at 4500 ± 400 nM.

The compound `C[C@@H]1[C@H](O)[C@@H](C)/C=C/C=C/C=C/C=C/C=C/C=C/C=C/[C@H](O[C@@H]2O[C@H](C)[C@@H](O)[C@H](N)[C@@H]2O)C[C@@H]2O[C@](O)(C[C@@H](O)C[C@@H](O)[C@H](O)CC[C@@H](O)C[C@@H](O)CC(=O)O[C@H]1C)C[C@H](O)[C@H]2C(=O)O` [Amphotericin B, reference compound] registered an IC50 in series [2] of 100 ± 40 nM.

For the compound `CN(C)CCCNCc1cccc(-c2nc(-c3cccc(CNCCCN(C)C)c3)c3ccccc3n2)c1` [Compound 3s, 2,4-Bis{3-[(3-dimethylaminopropyl)aminomethyl]phenyl}quinazoline], in series [1], the “Selectivity index HepG2/Tryp.” value is on record as 0.55 and the IC50 is 2070 ± 196 nM. Further, the IC50 in series [2] is ≥ 10000 nM. In series [3], the IC50 worked out at 1130 ± 107 nM and the “Selectivity index HepG2/3D7” value came out at 1.01. In addition, the CC50 at 72 h in series [4] was 1140 ± 400 nM.

Turning to `CN1CCN(CCCNCc2cccc(-c3cc(-c4cccc(CNCCCN5CCN(C)CC5)c4)c4ccccc4n3)c2)CC1` [Compound 1r, 2,4-Bis{3-[(3–(4-methylpiperazin-1-yl)propyl)aminomethyl]phenyl}quinoline], in series [1], the “Selectivity index HepG2/Tryp.” value turned out to be 3.65 and the IC50 was 1360 ± 194 nM. Moreover, the IC50 in series [2] was ≥ 10000 nM. In series [3], the IC50 amounted to 1950 ± 774 nM and the “Selectivity index HepG2/3D7” value is 2.55. This compound also yielded a CC50 at 72 h in series [4] of 4970 ± 300 nM.

`CN(C)CCNCc1ccc(-c2nc(-c3ccc(CNCCN(C)C)cc3)c3ccccc3n2)cc1` [Compound 3c, 2,4-Bis{4-[(2-dimethylaminoethyl)aminomethyl]phenyl}quinazoline]: in series [1], the “Selectivity index HepG2/Tryp.” value was determined as 10.72 and the concentration for half-maximal inhibition (IC50) amounted to 1480 ± 178 nM. The IC50 in series [2] is ≥ 10000 nM. Further, in series [3], the IC50 was determined as 1060 ± 103 nM and the “Selectivity index HepG2/3D7” value worked out at 14.97. For the same compound, in series [4], the CC50 at 72 h worked out at 15900 ± 1700 nM.

As for `CN1CCN(CCCNCc2cccc(-c3nc(-c4cccc(CNCCCN5CCN(C)CC5)c4)c4ccccc4n3)c2)CC1` [Compound 3t, 2,4-Bis{3-[(3–(4-methylpiperazin-1-yl)propyl)aminomethyl]phenyl}quinazoline], in series [1], the “Selectivity index HepG2/Tryp.” value was 14.42 and the IC50 was determined as 2050 ± 535 nM. For the same compound, in series [2], the IC50 was ≥ 10000 nM. Also, in series [3], the IC50 came out at 2240 ± 435 nM and the “Selectivity index HepG2/3D7” value was determined as 13.20. The compound further came in with a CC50 at 72 h in series [4] of 29600 ± 2200 nM.

Turning to `CN(C)CCCNCc1cccc(-c2cc(-c3cccc(CNCCCN(C)C)c3)c3ccccc3n2)c1` [Compound 1q, 2,4-Bis{3-[(3-dimethylaminopropyl)aminomethyl]phenyl}quinoline], the “Selectivity index HepG2/Tryp.” value in series [1] was found to be 5.18. The IC50 is 1300 ± 101 nM in series [1], ≥ 10000 nM in series [2] and 1440 ± 128 nM in series [3]. The “Selectivity index HepG2/3D7” value in series [3] is 4.68. The 50% cytotoxic concentration (CC50) at 72 h in series [4] was determined as 6740 ± 700 nM.

As for `CSc1ccc(OCc2ncc([N+](=O)[O-])n2C)cc1` [Fexinidazole, reference compound], the IC50 in series [1] stood at 590 ± 39 nM.

Take `CN1CCN(CCCCNCc2ccc(-c3cc(-c4ccc(CNCCCCN5CCN(C)CC5)cc4)c4ccccc4n3)cc2)CC1` [Compound 1d, 2,4-Bis{4-[(4–(4-methylpiperazin-1-yl)butyl)aminomethyl]phenyl}quinoline]: the “Selectivity index HepG2/Tryp.” value in series [1] is recorded as 6.32. The figures for the IC50 in series [1], in series [2] and in series [3] were 1220 ± 121 nM, ≥ 10000 nM and 690 ± 70 nM, respectively. In addition, the “Selectivity index HepG2/3D7” value in series [3] is listed as 11.17. The compound also had a CC50 at 72 h in series [4] of 7710 ± 400 nM.

In the case of `NCCCC(N)(C(=O)O)C(F)F` (centres unmarked) [Eflornithine, reference compound], the half-inhibitory concentration (IC50) in series [1] was found to be 15200 ± 640 nM.

Consider `Cc1ccc(C(=O)Nc2ccc(S(=O)(=O)O)c3cc(S(=O)(=O)O)cc(S(=O)(=O)O)c23)cc1NC(=O)c1cccc(NC(=O)Nc2cccc(C(=O)Nc3cc(C(=O)Nc4ccc(S(=O)(=O)O)c5cc(S(=O)(=O)O)cc(S(=O)(=O)O)c45)ccc3C)c2)c1` [Suramine, reference compound], for which, in series [1], the 50% inhibitory concentration (IC50) was found to be 30 ± 3 nM.

Regarding `CN1CCN(CCCCNCc2ccc(-c3nc(-c4ccc(CNCCCCN5CCN(C)CC5)cc4)c4ccccc4n3)cc2)CC1` [Compound 3d, 2,4-Bis{4-[(4–(4-methylpiperazin-1-yl)butyl)aminomethyl]phenyl}quinazoline], the “Selectivity index HepG2/Tryp.” value in series [1] is listed as 15.44. Besides, the concentration for half-maximal inhibition (IC50) in series [1] is 1860 ± 135 nM; in series [2] it was ≥ 10000 nM; in series [3], 2350 ± 488 nM. For the same compound, in series [3], the “Selectivity index HepG2/3D7” value amounted to 12.22. Half-maximal cytotoxicity in series [4] (CC50 at 72 h) was put at 28700 ± 1900 nM.
